# Results from US20100192451A1, “MOSQUITO ATTRACTANT COMPOSITIONS AND METHODS” (priority 2008, published 2010).
# Key:
# [1] = system: gravid Ae. aegypti; test: Egg-laying (contact-mediated) binary choice bioassay; type: in vivo, Aedes aegypti; conditions: for induction of egg laying by synthetic compounds: 1, 10 and 100 ng in 30 mL water
# Procedure: Modifications of the olfactory- and contact-mediated bioassays previously described (Trexler J D, Apperson C S, Schal C (1998) J Med Entomol 35:967-976) were used to measure the response of gravid mosquitoes to plant infusions (or bacterial compounds). Briefly, two 125-mL polypropylene cups (test and control) were placed randomly in diagonal corners of a Plexiglas cage (30×30×30 cm) that was fitted with a stockinet cloth sleeve (AlbaHealth, Rockwood, Tenn.). Each cup was filled with 30 mL of either test or control solution. White paper sleeves were placed around each bioassay cup to mask visual cues presented by darkly colored leaf infusions. Adults had ad libitum access to water contained in a polypropylene cup that was fitted with a lid with a cotton wick protruding through a hole in the lid. For egg-laying bioassays, either one or five gravid females were released in each replicate cage. Cages were placed randomly on racks in a room where environmental conditions were the same as in the insectary. After a 24 h exposure period, eggs laid on the surface of the water in the test and control cups were counted. In olfactory bioassays, 10 gravid females were released in each bioassay cage. A circular metal wire-mesh screen covered with insect glue (Tanglefoot; Tanglefoot Co.) was inserted in each cup on top of an insert cut from a 120-mL polypropylene cup. Sticky screens were placed above test and control media, 2.5 cm below the lip of each cup. The mesh size of the metal screen prevented females from entering without landing on the screen. Therefore, positive or negative responses to the test infusions were measured by the numbers of females trapped during a 24 h exposure period on the sticky screen in the test and control cups.
# For each replicate bioassay cage, the numbers of eggs laid in the test and control cups were converted to the proportion of the total number of eggs laid. The proportions were subjected to an arcsin√x transformation to achieve approximate normality. A one-tailed paired t test was used to determine whether differences in the mean transformed proportion of eggs deposited in test and control cups were statistically significant.
# Synthetic compounds were bioassayed by placing hexane solutions on the surface of sterile distilled water; water in control cups was treated with hexane alone. The hexane was evaporated in a fume hood before bioassays commenced. Each bioassay was with a single female and lasted 72 h.
# [2] = system: gravid Ae. aegypti; test: as above; type: in vivo, Aedes aegypti; conditions: for Eggs per assay: five females per assay, 24-h
# [3] = dose 1 ng in 30 mL water, single female, 72 h
# [4] = dose 10 ng in 30 mL water, single female, 72 h
# [5] = dose 10 ng, single female, 72 h
# [6] = dose 100 ng in 30 mL water, single female, 72 h
# [7] = dose 100 ng, single female, 72 h
# [8] = 1 ng, five females, 24 h assays
# [9] = dose 0.01 ng, five females per assay, 24-h
# [10] = dose 0.1 ng, five females per assay, 24-h
# [11] = dose 1.0 ng, five females per assay, 24-h
# [12] = dose 0.01 mg, single female, 72 h
# [13] = dose 0.1 mg, single female, 72 h
# [14] = dose 1.0 mg, single female, 72 h
SMILES,"Treatment, % (eggs in treatment cup) [1, 3] [%]","Eggs per assay ([1]; dose 1 ng, single female, 72 h)","Treatment, % (eggs in treatment cup) [1, 4] [%]","Eggs per assay [1, 5]","Treatment, % (eggs in treatment cup) [1, 6] [%]","Eggs per assay [1, 7]","induction of egg laying by synthetic compounds ([1]; single female, 72 h)",further results
CCCCCCCCCCCCCCCCCC(=O)O [Octadecanoic acid],55.1,71.3 ± 3.3,46.4,69.0 ± 3.6,58.4,64.8 ± 4.8,–,–
CCCCCCCCCCCCCC(=O)O [Tetradecanoic acid],45.4,79.6 ± 2.7,81.0,87.7 ± 5.1,62.1,80.2 ± 5.2,highly effective at inducing egg laying,"eggs per female in 24 h [1, 8]: 43.4±3.9; diversion of oviposition to treated water ([1]; 10 ng, single female, 72 h): diverted the greatest amount of oviposition to the treated water; Eggs per assay [1, 9]: 318.5 ± 14.4; Treatment, % (eggs in treatment cup) [1, 9]: 52.3%; Eggs per assay [1, 10]: 232.1 ± 22.3; Treatment, % (eggs in treatment cup) [1, 10]: 57.8%; Eggs per assay [1, 11]: 216.8 ± 19.4; Treatment, % (eggs in treatment cup) [1, 11]: 76.9%; Treatment, % (eggs in treatment cup) ([1]; dose 10 ng, five females per assay, 24-h): 57.9%; Treatment, % (eggs in treatment cup) ([1]; dose 100 ng, five females per assay, 24-h): 38.7%; oviposition stimulation [2, 8]: highly stimulatory; Eggs per assay ([2]; dose 10 ng): 196.4 ± 23.2; Eggs per assay ([2]; dose 100 ng): 260.4 ± 30.9"
CCCCCCCCCC(=O)O [Decanoic acid],43.7,60.0 ± 5.6,52.2,61.3 ± 5.0,45.8,67.0 ± 7.0,–,–
CCCCCCCCC(=O)O [Nonanoic acid],38.6,70.9 ± 4.0,58.3,74.3 ± 6.1,69.1,80.0 ± 3.3,highly effective at inducing egg laying,–
"CCCCCCCCCCCCCCCC(=O)OC [Hexadecanoic acid, methyl ester]",34.7,51.0 ± 3.5,59.1,51.3 ± 3.0,60.4,58.6 ± 3.8,–,–
CCCCCCCCCCCCCCCC(=O)O [Hexadecanoic acid],53.4,63.7 ± 4.2,43.2,63.5 ± 4.9,38.2,71.8 ± 4.8,–,–
CCCCCCCCCCCC(=O)O [Dodecanoic acid],47.0,67.3 ± 4.0,43.4,66.3 ± 3.1,47.6,63.8 ± 3.4,–,"Eggs per assay [1, 12]: 66.5 ± 4.2; Treatment, % (eggs in treatment cup) [1, 12]: 52.2%; Eggs per assay [1, 13]: 64.4 ± 2.9; Treatment, % (eggs in treatment cup) [1, 13]: 45.8%; Eggs per assay [1, 14]: 60.2 ± 2.8; Treatment, % (eggs in treatment cup) [1, 14]: 42.2%"
"CCCCCCCCCCCCCC(=O)OC [Tetradecanoic acid, methyl ester]",55.0,68.3 ± 5.4,70.2,64.0 ± 7.1,51.0,70.6 ± 6.0,highly effective at inducing egg laying,–
